Measurements from ChEMBL document CHEMBL1201862, “PubChem BioAssay data set” (2004).
Calls of active or inactive are those of the source.

Columns and labels:
BJ [1] = test: cytotoxicity toward BJ-TERT fibroblasts, dose response, cell-based, RAS-independent, luminescence (AID 1933); format: functional; conditions: Homo sapiens
BJ [2] = test: cells; format: functional, cell-based; conditions: Homo sapiens
[3] = growth suppression of PTEN-null colon cells, dose response, cell-based, HCT116 PTEN knockout (AID 1047); format: functional;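 also: HCT116 colon tumor cells with PTEN knocked out; cells exposed to compound for 60 hours before readout; potency for loss of cell viability measured by luminescence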
[4] = growth suppression of beta-catenin-knockout colon cells, dose response, cell-based, HCT116, human colon tumor (AID 1045); format: functional;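 also: HCT116 colon tumor cells with beta catenin knocked out; cells exposed to compound for 60 hours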
BJ [5] = test: cytotoxicity toward BJ-TERT-LT-ST fibroblasts, dose response, cell-based, RAS-independent, luminescence (AID 1935); format: functional; conditions: Homo sapiens;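 also: BJ fibroblasts immortalized with TERT plus LT and ST oncogenes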
[6] = cytotoxicity toward DRD oncogenic fibroblasts, dose response, cell-based, non-viral oncogenic, luminescence (AID 1934); format: functional; conditions: Homo sapiens
[7] = target: Induced myeloid leukemia cell differentiation protein Mcl-1 (Homo sapiens, UniProt Q07820); format: functional
Chain of Induced myeloid leukemia cell differentiation protein Mcl-1 (Q07820 whole entry): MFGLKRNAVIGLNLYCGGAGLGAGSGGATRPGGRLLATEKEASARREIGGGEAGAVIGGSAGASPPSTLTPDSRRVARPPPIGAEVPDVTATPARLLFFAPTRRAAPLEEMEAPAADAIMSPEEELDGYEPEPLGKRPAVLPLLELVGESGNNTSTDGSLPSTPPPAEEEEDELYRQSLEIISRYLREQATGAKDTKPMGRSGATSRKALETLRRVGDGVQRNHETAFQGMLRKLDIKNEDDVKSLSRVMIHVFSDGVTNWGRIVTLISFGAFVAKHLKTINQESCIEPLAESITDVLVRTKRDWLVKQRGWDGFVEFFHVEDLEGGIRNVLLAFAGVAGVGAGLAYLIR

BJ [8] = test: cytotoxicity toward Ras-transformed BJeLR fibroblasts, dose response, cell-based, alamar blue fluorescence, cherrypicked samples (AID 2631); format: functional; conditions: Homo sapiens;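 also: confirmatory dose-response assay in RAS-dependent BJ fibroblasts engineered with TERT, LT and ST, with cytotoxicity read by fluorescence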
[9] = THP-1 cell cytotoxicity, dose response, cytotoxicity control for Vif-APOBEC3G degradation inhibitor project, THP-1 cells (AID 1117359); format: functional; conditions: Human immunodeficiency virus 1, THP-1
[10] = Luminescence Cell-Based Dose Retest to Confirm Inhibitors of Cancer Stem Cells. [Related pubchem assays (depositor defined):AID2717, AID2721]; format: functional; conditions: Homo sapiens
[11] = target: T1, Long-chain-fatty-acid--AMP ligase FadD28 (Mycobacterium tuberculosis, UniProt P9WQ59); test: Fluorescence polarization aasay to screen for inhibitors that compete for the binding of FadD28 to a bisubstrate Measured in Biochemical System Using Plate Reader - 2147-01_Inhibitor_Dose_CherryPick_Activity.; format: functional, Mycobacterium tuberculosis H37Rv
T1 sequence (P9WQ59 whole entry): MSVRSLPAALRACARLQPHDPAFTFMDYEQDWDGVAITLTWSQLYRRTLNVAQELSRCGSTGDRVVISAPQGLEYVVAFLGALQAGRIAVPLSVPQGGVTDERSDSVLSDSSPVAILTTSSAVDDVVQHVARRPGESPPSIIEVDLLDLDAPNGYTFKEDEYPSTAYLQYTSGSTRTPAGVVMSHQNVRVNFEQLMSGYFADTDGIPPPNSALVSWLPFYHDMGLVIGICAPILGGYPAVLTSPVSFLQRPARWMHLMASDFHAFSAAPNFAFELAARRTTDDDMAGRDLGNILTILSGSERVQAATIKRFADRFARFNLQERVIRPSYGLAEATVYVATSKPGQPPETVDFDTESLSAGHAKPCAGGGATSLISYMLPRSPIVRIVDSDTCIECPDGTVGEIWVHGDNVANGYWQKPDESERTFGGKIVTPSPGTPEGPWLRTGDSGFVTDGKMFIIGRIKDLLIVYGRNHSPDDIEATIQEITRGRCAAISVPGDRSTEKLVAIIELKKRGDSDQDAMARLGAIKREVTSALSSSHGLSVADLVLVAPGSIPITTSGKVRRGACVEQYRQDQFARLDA

[12] = target: T2, Carboxy-terminal domain RNA polymerase II polypeptide A small phosphatase 1 (Homo sapiens, UniProt Q9GZU7); test: inhibitors of CTDSP1, concentration-response testing, biochemical assay, absorbance-based, actives from ultra-high-throughput screening (AID 540297); format: functional
T2 sequence (Q9GZU7 whole entry): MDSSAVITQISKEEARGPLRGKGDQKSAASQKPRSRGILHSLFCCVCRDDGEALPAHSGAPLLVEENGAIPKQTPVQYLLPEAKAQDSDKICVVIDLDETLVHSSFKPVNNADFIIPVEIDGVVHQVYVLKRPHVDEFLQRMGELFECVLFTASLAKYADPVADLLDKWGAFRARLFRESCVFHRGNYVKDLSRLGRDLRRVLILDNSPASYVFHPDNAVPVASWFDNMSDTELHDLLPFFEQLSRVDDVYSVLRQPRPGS

[13] = microbe, parasite or virus in culture; format: functional; conditions: Mycobacterium tuberculosis
[14] = target: T3, Replicative DNA helicase DnaB (Mycobacterium tuberculosis, UniProt P9WMR3); test: DnaB intein splicing inhibitors, dose response, biochemical, cell-free fluorescence (AID 449749); format: functional
T3 sequence (P9WMR3 whole entry): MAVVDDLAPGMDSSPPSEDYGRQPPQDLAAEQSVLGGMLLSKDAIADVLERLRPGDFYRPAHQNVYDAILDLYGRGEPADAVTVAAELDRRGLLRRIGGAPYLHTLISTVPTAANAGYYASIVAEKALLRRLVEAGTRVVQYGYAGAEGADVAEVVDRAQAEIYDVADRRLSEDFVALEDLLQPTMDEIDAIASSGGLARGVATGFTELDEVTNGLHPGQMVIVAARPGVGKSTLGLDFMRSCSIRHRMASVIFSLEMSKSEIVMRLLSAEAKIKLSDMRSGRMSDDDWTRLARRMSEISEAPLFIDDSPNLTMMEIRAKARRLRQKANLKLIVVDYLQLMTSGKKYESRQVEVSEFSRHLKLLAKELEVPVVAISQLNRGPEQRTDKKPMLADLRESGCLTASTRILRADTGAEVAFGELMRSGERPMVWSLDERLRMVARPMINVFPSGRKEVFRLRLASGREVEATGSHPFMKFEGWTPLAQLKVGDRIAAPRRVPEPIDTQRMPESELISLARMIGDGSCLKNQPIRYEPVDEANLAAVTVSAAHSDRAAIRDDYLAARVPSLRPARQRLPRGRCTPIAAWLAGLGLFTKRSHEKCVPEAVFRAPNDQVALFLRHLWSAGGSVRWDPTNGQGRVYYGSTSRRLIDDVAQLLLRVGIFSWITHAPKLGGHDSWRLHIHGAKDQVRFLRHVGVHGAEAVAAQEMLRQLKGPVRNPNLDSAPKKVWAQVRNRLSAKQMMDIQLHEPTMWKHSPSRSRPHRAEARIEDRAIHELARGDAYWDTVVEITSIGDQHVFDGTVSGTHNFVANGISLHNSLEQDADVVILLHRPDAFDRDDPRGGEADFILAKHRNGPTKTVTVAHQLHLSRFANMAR

Protein RecA = target: T4, Protein RecA (Mycobacterium tuberculosis, UniProt P9WHJ3); test: Fluorescence Cell-Free Homogeneous Dose Retest to Identify Inhibitors of RecA-Intein Splicing Activity. [Related pubchem assays (depositor defined):AID2097, AID2223, AID489010, AID492950]; format: functional
T4 sequence (P9WHJ3 whole entry): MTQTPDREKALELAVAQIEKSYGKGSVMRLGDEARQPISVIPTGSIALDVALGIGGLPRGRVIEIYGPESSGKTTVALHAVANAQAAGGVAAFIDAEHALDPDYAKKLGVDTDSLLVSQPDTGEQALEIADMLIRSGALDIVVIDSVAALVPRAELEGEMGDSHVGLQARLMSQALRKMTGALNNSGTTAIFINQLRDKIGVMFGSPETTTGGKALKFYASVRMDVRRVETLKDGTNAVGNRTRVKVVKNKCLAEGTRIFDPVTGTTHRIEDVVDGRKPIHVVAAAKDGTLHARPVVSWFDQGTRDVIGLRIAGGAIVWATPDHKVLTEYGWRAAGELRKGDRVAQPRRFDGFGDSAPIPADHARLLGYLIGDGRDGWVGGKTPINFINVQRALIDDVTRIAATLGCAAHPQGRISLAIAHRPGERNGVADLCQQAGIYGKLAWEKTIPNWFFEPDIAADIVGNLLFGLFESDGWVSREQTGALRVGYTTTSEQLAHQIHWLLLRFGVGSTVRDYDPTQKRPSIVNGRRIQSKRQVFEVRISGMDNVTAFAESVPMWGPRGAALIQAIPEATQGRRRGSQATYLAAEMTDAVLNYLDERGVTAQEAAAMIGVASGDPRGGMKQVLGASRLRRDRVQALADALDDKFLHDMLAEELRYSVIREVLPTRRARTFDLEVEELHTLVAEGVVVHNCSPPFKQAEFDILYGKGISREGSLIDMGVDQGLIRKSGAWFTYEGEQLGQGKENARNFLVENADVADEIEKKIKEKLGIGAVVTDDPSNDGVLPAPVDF

[15] = target: T5, Corticotropin-releasing factor receptor 2/Corticotropin-releasing factor-binding protein (Homo sapiens, UniProt P24387+Q13324); test: Dose Response confirmation of uHTS hits for small molecule antagonists of the CRF-binding protein and CRF-R2 receptor complex.; format: functional; conditions: read-out: IC50_Mean
T5 sequence (Q13324 whole entry): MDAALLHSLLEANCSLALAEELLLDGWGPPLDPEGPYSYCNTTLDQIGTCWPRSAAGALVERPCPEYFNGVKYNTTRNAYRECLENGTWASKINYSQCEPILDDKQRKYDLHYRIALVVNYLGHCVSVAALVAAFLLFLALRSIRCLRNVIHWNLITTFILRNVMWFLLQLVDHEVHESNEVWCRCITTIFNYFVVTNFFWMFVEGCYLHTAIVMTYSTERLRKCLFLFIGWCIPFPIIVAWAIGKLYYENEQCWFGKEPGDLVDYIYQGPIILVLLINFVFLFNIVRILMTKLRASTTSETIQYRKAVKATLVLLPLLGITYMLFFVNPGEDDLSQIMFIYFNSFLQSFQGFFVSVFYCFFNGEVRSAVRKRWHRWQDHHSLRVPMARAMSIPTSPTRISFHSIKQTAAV
T5 sequence (P24387 whole entry): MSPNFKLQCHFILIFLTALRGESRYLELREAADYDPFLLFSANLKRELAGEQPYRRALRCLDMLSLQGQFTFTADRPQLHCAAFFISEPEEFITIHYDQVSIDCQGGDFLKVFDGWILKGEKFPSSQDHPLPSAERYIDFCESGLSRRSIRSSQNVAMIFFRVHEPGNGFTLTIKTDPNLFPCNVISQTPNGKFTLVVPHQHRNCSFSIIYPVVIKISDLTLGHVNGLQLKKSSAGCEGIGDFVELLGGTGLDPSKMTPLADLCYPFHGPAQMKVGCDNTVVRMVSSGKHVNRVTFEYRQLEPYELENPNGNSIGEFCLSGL

[16] = target: T5, Corticotropin-releasing factor receptor 2/Corticotropin-releasing factor-binding protein; test: activators of CRF receptor 2 with binding protein – uHTS hits, confirmation (AID 602473); format: functional; conditions: read-out: EC50_Mean
[17] = CRF-BP/CRF-R2 complex antagonists, dose response, cell-based, uHTS hits, 384-well (AID 651639); format: functional, Homo sapiens; conditions: read-out: IC50_Mean

| SMILES | EC50 (BJ [1]) | EC50 (BJ [2]) | EC50 (BJ [5]) | EC50 [6] | EC50 (BJ [8]) | AC50 [11] | other results |
| --- | --- | --- | --- | --- | --- | --- | --- |
| CCOc1ccccc1Nc1nc(-c2sc(NC(=O)c3ccc([N+](=O)[O-])cc3)nc2C)cs1 | 7.64 µM (active) | 12.7 µM (active) | > 150 µM (inconclusive) | 7.92 µM (active) | > 133 µM (inactive) | – | EC50 [3]: 9.09 µM (active); EC50 [4]: 7.38 µM (active); IC50 [7]: 13.4 µM (active) |
| COc1ccc(C)cc1Nc1c2c(nc3ccccc13)CCC2 | 3.98 µM (inconclusive) | 15.1 µM (inconclusive) | 1 µM (inconclusive) | 7.71 µM (inconclusive) | 0.174 µM (active) | – | CC50 [9]: 0.62 µM (active) |
| CC1=NN(c2nc(-c3ccc(F)cc3)cs2)C(=O)C1 | – | – | – | – | – | 32 µM (inactive) | AC50 [10]: 7.23 µM (active) |
| Cc1cccc(NC(=O)CN2C(=O)S/C(=C\c3ccc(O)c([N+](=O)[O-])c3)C2=O)c1 | – | – | – | – | – | 0.102 µM (active) | IC50 [12]: 3.43 µM (active) |
| CCc1nnc(NS(=O)(=O)c2ccc(NC(=O)Nc3ccc(OC)cc3)cc2)s1 | – | – | – | – | – | 73.5 µM (active) | – |
| Cc1ccc(C2CC(c3cccs3)=NN2C(=O)CCl)cc1 (stereo not given) | 0.911 µM (active) | 5.54 µM (active) | 6 µM (active) | 5.15 µM (inconclusive) | 2.87 µM (active) | – | CC50 [13]: 2.24 µM (active); AC50 [14]: 1.23 µM (active); EC50 (Protein RecA): 0.943 µM (active) |
| Cc1nc(Sc2ccccc2)c(C#N)cc1-c1ccccc1 | – | – | – | – | – | – | IC50 [15]: < 0.368 µM (active); EC50 [16]: > 53 µM (inactive); IC50 [17]: > 20 µM (inactive) |
